Measured values from US9737525B2, “Small molecule activators of NRF2 pathway” (The General Hospital Corporation, priority 2013, dated 2017).
Entries after “also recorded” stand apart in the source; their conditions may differ.

Columns and labels:
[1] = system: primary cortical neurons expressing 140Q full-length mutant huntingtin; assay: Neuronal viability assay (MTT), wild type and HD primary cortical neurons; assay type: cell-based, mouse; conditions: for Cytotoxicity in primary neurons: 0.5 μM and higher
Method: Embryonic tissue from wild type and 140Q mouse brains (E15-E17 days into pregnancy) was used to isolate and plate cortical neurons as described (Valencia et al., 2013). Neurons were plated at 8×10^5 cell/ml in a 24-well plate supplemented with 25 μM of L-glutamate and 10 μM of 2-β-mercapto-ethanol (Gibco). Plates were previously coated with poly-L-lysine (30-70 kDa, SIGMA) in borate buffer at pH 8.0 and coated again using DMEM/F12+FBS 10% for 2 hours prior to plating. After 3 days in culture, neurons were treated with 10 μM of β-D-cytosine arabinofurinoside for 24 hours to prevent the proliferation of non-neuronal cells.
Neurons were supplemented with MIND4 at different concentrations 0, 0.1, 0.25 and 0.5 μM at days in vitro 4, 6 and 8 (FIG. 3A). […] To maintain drug concentrations, half of the culture media was replenished with fresh media at each time point and MIND4 treatment doses were adjusted accordingly. Cell viability was measured at DIV 10 as previously described based on the ability of viable neurons to transformed MTT (3-(4,5-Dimethylthiazol-2-yl)-2,5-diphenyltetrazolium bromide) into formazan blue crystals (Valencia et al., 2013). Neurons were incubated with 0.5 mg/ml of MTT for 15 minutes, media was then discarded and formazan blue crystals were dissolved in DMSO 100% and read at 540 nm in a Vector plate reader. Results are expressed as Mean±Standard deviation absorbance units at 540 nm (AU). P values were obtained using a Student's t-test from an N=6 wells per condition for treated wild type and HD neurons.
Cell survival was measured as MTT transformation at 10 days in vitro (DIV). Neurons were treated three times with the compounds at 4, 6 and 8 DIV at the indicated concentrations. Two independent experiments were performed with a total of 13 embryos per genotype, 6 WT and 7 HD respectively; 6 wells were used for each experimental condition (compound dose).

[2] = system: NRF2-responsive proteins NQO1 and GCLM; assay: Induction of NQO1 and GCLM proteins in differentiated ST14A cells (immunoblotting); assay type: cell-based, rat; conditions: differentiated HD mutant and wild type ST14A cells, 24 hours
Method: (§1) To assess protein levels, cell extracts were prepared from cells washed with PBS and lysed with buffer containing 2% SDS, Complete EDTA-free Protease Inhibitor Cocktail (Roche) and 1 mM phenylmethylsulfonyl fluoride. To prepare brain extracts for analysis, frozen mouse cortical tissues were homogenized in PBS containing protease inhibitors with an Kontes Pellet Pestle (Kimble/Kontes). They were later sonicated and lysed overnight at 4° C. in 2× volume of lysis buffer containing 2% SDS and protease inhibitors. Protein concentrations in ST14A cell extracts and homogenized cortical tissues were evaluated using a BCA analysis kit and normalized. Samples were prepared in a SDS buffer containing DTT and separated on bis-acrylamide protein gels via electrophoresis and transferred onto a 0.2 μm PVDF membrane). Membranes were probed for NQO1 (Sigma N5288, 1:1,000), GCLM, (Abcam ab126704, 1:800), SIRT2 (Sigma S8447, 1:2,500), histone H3 (Cell Signaling 4499, 1:2,000), acetylated H3 (K56) (Millipore 04-1135, 1:500), TNFα (Abcam ab1793, 1:1,500), GADPH (Millipore MAB374, 1:10,000), actin (Sigma A2066, 1:1250), α-tubulin (Sigma T6074, 1:20,000), and acetylated α-tubulin (Sigma T6793, 1:2,500) overnight in 5% milk in PBST at 4° C. on a rocker. Membranes were thrice washed in PBST for 15 min on a shaker and incubated in either an anti-rabbit-HRP (Bio-Rad 170-5046, 1:10,000) or anti-mouse-HRP (Sigma A3682, 1:4,000) secondary solution as appropriate in 3% milk in PBST for 1 hr at room temperature on a rocker. After four washes of 15 min in PBST on a shaker, blots were visualized using SuperSignal West Pico Chemiluminescent Substrate (Pierce 34080) or SuperSignal West Dura Extended Duration Substrate (Thermo 34075) and exposed on Scientific Imaging Film (Kodak 864 6770).
Compound bioactivity was tested in the rat embryonic striatal cell lines ST14A, which stably express either a mutant expanded repeat (128Q) or wild type (26Q) 546 amino acid huntingtin (HTT) fragment (a generous gift of E. Cattaneo) (Ehrlich et al., 2001) ST14A cells were propagated at 33° C. in the presence of serum. To induce neuronal differentiation, cells were serum deprived and cultured at 37° C. in the presence of N2 supplement. Cells were treated with compounds concurrently with induction of neuronal differentiation for 24 hours, as described (Quinti et al., 2010).
The NRF2 activation properties of further MIND4 structural analogs with variable potencies of SIRT2 inhibition were tested as described previously (see Table 1) Changes in expression of the canonical NRF2-responsive proteins NQO1 and GCLM, the transcription of which was induced by MIND4, was selected as a readout of pathway activation. Protein levels of NQO1 and GCLM were examined by immunoblotting in compound treated mutant HD and wild-type ST14A cells. […] This hypothesis was tested using a second panel of MIND4 analogs (see Table 3).

[3] = system: NRF2-target proteins NQO1 and GCLM; assay: NQO1 and GCLM proteins in wild type mouse cortical neurons (immunoblotting); assay type: cell-based; conditions: wild type mouse cortical neurons (6 DIV), 24 hr
Method: as §1
Dose-response induction of NRF2-target proteins NQO1 and GCLM in wild type mouse cortical neurons (6 DIV) treated with MIND4 and MIND4-17 for 24 hr was consistent with the compound effects on ARE-dependent gene transcription (FIG. 24E).

N9 microglial cells = assay: ROS/RNI assays in stimulated N9 microglial cells; assay type: cell-based; conditions: LPS- and TNFα-activated microglial cells, 20 hr
Method: N9 microglial cells were cultured in RPMI medium containing Glutamax (Invitrogen) and supplemented with 10% FBS (Endotoxin levels lower than 10 EU/ml). Cells were plated in 96 well plates (5×10^4 per well) and cultured overnight before stimulation with LPS (100 ng/ml) and TNFα (10 ng/ml) for 20 hr in medium supplemented with DMSO or with the tested compounds. ROS were detected by flow cytometry after microglia incubation with […] of 5-(and-6)-chloromethyl-2′,7′-dichlorodihydrofluorescein diacetate, acetyl ester (CM-H2DCFDA) (Invitrogen) for 20 min. The production of NO by iNOS was measured indirectly by assaying nitrites in the culture supernatant using the Griess reaction [Liu, 2013]. Briefly, […] of supernatants were incubated with equal amount of Griess reagent (1% sulphanilamide, 0.1% naphthylethylenediamine in 2% phosphoric acid solution) and the absorbance read at 550 nm after 20 min of incubation at room temperature.

[4] = 0.25 μM, treated at 4, 6 and 8 DIV, MTT at 10 DIV

O=[N+]([O-])c1ccc(Sc2nnc(COc3ccccc3)n2-c2ccccc2)nc1 [MIND4-17]
Survival of HD neurons [1, 4]: enhanced survival of HD neurons
Cytotoxicity in primary neurons [1]: cytotoxic
Induction of NRF2-responsive proteins NQO1 and GCLM [2]: potently induces NRF2-responses; also recorded: dose-dependent induction of NQO1 protein
Expression of NQO1 protein [3]: increased the expression of NQO1 protein to the same extent
GCLM expression [3]: more potent inducer of GCLM expression
Production of RNI (nitrites in supernatants) (N9 microglial cells): reduced the production of RNI
ROS levels (N9 microglial cells): reduced ROS levels

O=[N+]([O-])c1ccc(Sc2nnc(COc3ccccc3)n2-c2ccccc2)c2ncccc12 [MIND4, 5-nitro-8-{[5-(phenoxymethyl)-4-phenyl-4H-1,2,4-triazol-3-yl]thio}quinoline]
Survival of HD neurons ([1]; 0.1 μM): partially improved survival
Survival of HD neurons ([1]; 0.1 μM and 0.25 μM, treated at DIV 4, 6, 8, MTT at DIV 10): improved survival of HD neurons at both doses
Survival of HD neurons [1, 4]: enhanced survival of HD neurons
Cytotoxicity in primary neurons [1]: cytotoxic
Effect on control cortical neurons from wild type mice ([1]; 7 days of treatment): No effects
Induction of NRF2-responsive proteins NQO1 and GCLM [2]: induced dose-dependent increases of NQO1 and GCLM protein
Expression of NQO1 protein [3]: increased the expression of NQO1 protein to the same extent
Production of RNI (nitrites in supernatants) (N9 microglial cells): reduced the production of RNI
ROS levels (N9 microglial cells): reduced ROS levels
